Experimental data taken from patent publication US11390609B2, “Rho-associated protein kinase inhibitor, pharmaceutical composition comprising same, and preparation method and use thereof” (BEIJING TIDE PHARMACEUTICAL CO., LTD., priority 2017, dated 2022).

These compounds were tested against ROCK1 (Homo sapiens (Human), UniProt Q13464) (assay: ROCK1 kinase IC50 assay (biological test method similar to the ROCK2 assay)).
ROCK1, sequence (Q13464 whole entry, species assumed): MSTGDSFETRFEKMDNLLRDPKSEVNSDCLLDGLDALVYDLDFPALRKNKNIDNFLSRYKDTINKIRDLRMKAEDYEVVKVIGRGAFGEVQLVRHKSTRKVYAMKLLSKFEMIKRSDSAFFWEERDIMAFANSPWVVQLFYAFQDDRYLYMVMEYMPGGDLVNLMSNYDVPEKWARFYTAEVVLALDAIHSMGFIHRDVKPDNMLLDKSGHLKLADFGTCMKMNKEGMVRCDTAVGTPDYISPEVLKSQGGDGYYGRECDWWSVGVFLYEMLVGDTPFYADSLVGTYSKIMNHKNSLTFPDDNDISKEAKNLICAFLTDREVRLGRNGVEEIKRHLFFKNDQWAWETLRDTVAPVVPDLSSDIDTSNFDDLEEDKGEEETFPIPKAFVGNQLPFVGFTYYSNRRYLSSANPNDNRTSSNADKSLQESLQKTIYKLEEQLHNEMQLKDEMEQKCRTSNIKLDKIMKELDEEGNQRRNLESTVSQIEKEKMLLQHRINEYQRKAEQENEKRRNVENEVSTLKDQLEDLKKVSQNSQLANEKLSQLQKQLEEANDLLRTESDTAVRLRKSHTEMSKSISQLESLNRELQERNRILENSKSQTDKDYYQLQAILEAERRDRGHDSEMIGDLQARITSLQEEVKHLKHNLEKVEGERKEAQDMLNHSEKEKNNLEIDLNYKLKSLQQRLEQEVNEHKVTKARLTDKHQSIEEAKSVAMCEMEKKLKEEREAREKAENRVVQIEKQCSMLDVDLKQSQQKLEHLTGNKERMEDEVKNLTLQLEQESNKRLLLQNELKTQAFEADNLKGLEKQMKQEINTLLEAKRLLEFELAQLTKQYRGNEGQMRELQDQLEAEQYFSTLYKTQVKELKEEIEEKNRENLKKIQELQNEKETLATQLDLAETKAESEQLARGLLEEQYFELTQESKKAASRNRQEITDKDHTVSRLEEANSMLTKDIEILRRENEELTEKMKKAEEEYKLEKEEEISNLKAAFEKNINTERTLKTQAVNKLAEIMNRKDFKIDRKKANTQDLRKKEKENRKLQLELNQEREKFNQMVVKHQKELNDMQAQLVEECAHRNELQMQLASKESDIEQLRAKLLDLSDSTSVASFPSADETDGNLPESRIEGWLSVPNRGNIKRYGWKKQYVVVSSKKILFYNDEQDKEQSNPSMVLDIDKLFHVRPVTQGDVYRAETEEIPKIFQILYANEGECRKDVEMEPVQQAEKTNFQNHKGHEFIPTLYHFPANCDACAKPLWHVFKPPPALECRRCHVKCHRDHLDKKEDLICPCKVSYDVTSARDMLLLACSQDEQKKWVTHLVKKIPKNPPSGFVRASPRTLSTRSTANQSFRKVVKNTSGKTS
Assay type: biochemical
Experimental: The kinase IC50 was determined by a commercialized CISBIO kinase detection kit, HTRF KinEASE-STK S2 kit (62ST2PEC). ROCK2 (01-119) employed in the reaction was purchased from Carna Biosciences.
Before the assay, the following working solutions as needed were formulated with corresponding reagents according to the instruction of the kinase detection kit: 1×kinase buffer, 5×STK-52 substrate working solution (1.5 μM) and 5×ATP working solution (1.5 μM), 5×ROCK2 kinase working solution, 4×Streptavidin-XL665 working solution, and 4×STK-Ab-Cryptate 2 detection solution. Then the assay was performed according to the following procedure.
A solution of a compound at a concentration of 10000 nM was prepared with the 1×kinase buffer containing 2.5% DMSO. Gradient dilution of the solution of the compound was performed with the kinase buffer containing DMSO, so as to obtain solutions of a test compound at 9 different concentrations. In addition to wells of test compounds, a positive well (containing all the reagents except the compound) and a negative well (containing all the reagents except the test compound and kinase) were set. Except for the control wells (positive and negative wells), a solution of a test compound (4 μL) was added to each of the reaction wells, and a solution of 2.5% DMSO was added to the control wells. Then the substrate ([…], 2 μL. 5×STK-S2 substrate working solution) was added to each of the reaction wells. The 5×ROCK2 kinase working solution (2 μL, containing 1.4 ng ROCK2 kinase) was added to each of the reaction wells except for the negative well, the volume of which was made up with the 1×kinase buffer (2 μL). The 5×ATP working solution (2 μL) was added to each of the reaction wells, and the mixtures were incubated at room temperature for 2 hours. After the kinase reaction was complete, the 4×Streptavidin-XL665 working solution was added to each of the reaction wells, the solutions were mixed, followed by immediate addition of the 4×STK-Ab-Cryptate 2 detection solution (5 μL), and the mixtures were incubated at room temperature for 1 hour. The fluorescence signal was read on ENVISION (Perkinelmer) (excitation wavelength: 320 nm, and emission wavelength: 665 nm and 615 nm). The inhibitory rate in each well was calculated based on the fluorescence intensity value: ER (Emission Ratio)=(fluorescence intensity at 665 nm/fluorescence intensity at 615 nm); inhibitory rate=(ERpositive−ERtest compound)/(ERpositive−ERnegative)*100%. Curves were plotted and fitted to obtain the median inhibitory concentration (IC50) of each teat compound with the PRISM 5.0 software.
According to a biological test method similar to the above, the IC50 values of the compounds on ROCK1 were tested.
`O=C(NC1CCC1)c1cc2ccc(-c3nc(Nc4ccc(-c5cn[nH]c5)cc4)c4sccc4n3)cc2[nH]1` [TDI01424, 6-(4-((4-(1H-pyrazol-4-yl)phenyl)-amino)-thieno-[3,2-d]-pyrimidin-2-yl)-N-cyclobutyl-1H-indole-2-carboxamide] showed an IC50 of 4980 nM.
`CC(C)NC(=O)c1cc2ccc(-c3nc(Nc4ccc5[nH]ncc5c4)c4ccn(CCN(C)C)c4n3)cc2s1` [TDI01122, 6-(4-((1H-indazol-5-yl)amino)-7-(2-(dimethylami-no)ethyl)-7H-pyrrolo[2,3-d]pyrimidin-2-yl)-N-isopropylben-zo[b]thiophene-2-carboxamide] showed an IC50 of 3270 nM.
In the case of `O=C(Nc1ccncc1)c1cc2ccc(-c3nccc(Nc4ccc(-c5cn[nH]c5)cc4)n3)cc2s1` [TDI01393], the IC50 is reported as over 10000 nM.
`O=C(C1CC(F)(F)C1)N1Cc2ccc(-c3ncc(F)c(Nc4ccc(-c5cn[nH]c5)cc4)n3)cc2C1` [TDI01978, (5-(4-((4-(1H-pyrazol-4-yl)phenyl)amino)-5-fluoropyrimidin-2-yl)isoindolin-2-yl)(3,3-difluorocyclobutyl) methanone] showed an IC50 of over 10000 nM.
With `N#Cc1cnccc1NC(=O)c1cc2ccc(-c3nccc(Nc4ccc(-c5cn[nH]c5)cc4)n3)cc2[nH]1` [TDI01829B, 6-(4-((4-(1H-pyrazol-4-yl)phenyl)amino)pyrimidin-2-yl)-N-(3-cyanopyridin-4-yl)-1H-indole-2-carboxamide] the IC50 was over 10000 nM.
Compound `CN(C)C(=O)N1Cc2ccc(-c3nccc(Nc4ccc(-c5cn[nH]c5)cc4)n3)cc2C1` [TDI01366, 5-(4-((4-(1H-pyrazol-4-yl)phenyl)amino)pyrimidin-2-yl)-N,N-dimethylisoindoline-2-carboxamide] has an IC50 of over 10000 nM.
Compound `CN(CC#N)C(=O)c1cc2ccc(-c3nccc(Nc4ccc(-c5cn[nH]c5)cc4)n3)cc2[nH]1` [TDI01430, 6-(4-((4-(1H-pyrazol-4-yl)phenyl)amino)pyrimidin-2-yl)-N-(cyanomethyl)-N-methyl-1H-indole-2-carboxamide] has an IC50 of over 10000 nM.
Compound `O=C(NC1CC1)c1cc2ccc(-c3nccc(Nc4ccc5[nH]ncc5c4)n3)cc2[nH]1` [TDI01151, 6-(4-((1H-indazol-5-yl)amino)-pyrimidin-2-yl)-N-cyclopropyl-1H-indole-2-carboxamide] has an IC50 of 892 nM.
Work on `Cc1nc(-c2ccc3cc(C(=O)Nc4ccnnc4)[nH]c3c2)nc(Nc2ccc3[nH]ncc3c2)c1C` [TDI01232, 6-(4-((1H-indazol-5-yl)amino)-5,6-dimethyl-pyrimidin-2-yl)-N-(pyridazin-4-yl)-1H-indole-2-carboxamide] yielded an IC50 of over 10000 nM.
Compound `O=C(Nc1ccnnc1)N1Cc2ccc(-c3nccc(Nc4ccc5[nH]ncc5c4)n3)cc2C1` [TDI01237, 5-(4-((1H-indazol-5-yl)amino)pyrimidin-2-yl)-N-(pyridazin-4-yl)isoindoline-2-carboxamide] has an IC50 of over 10000 nM.
In the case of `N#CC1CN(C(=O)c2cc3ccc(-c4nccc(Nc5ccc(-c6cn[nH]c6)cc5)n4)cc3[nH]2)C1` [TDI01398, 1-(6-(4-((4-(1H-pyrazol-4-yl)phenyl)-amino)-pyrimidin-2-yl)-1H-indole-2-carbonyl)-azetidine-3-carbonitrile], the IC50 is reported as over 10000 nM.
`O=C(Nc1ccnnc1)c1cc2ccc(-c3nccc(Nc4ccc5[nH]ncc5c4)n3)cc2s1` [TDI01116, 6-(4-((1H-indazol-5-yl)amino)-pyrimidin-2-yl)-N-(pyridazin-4-yl)benzo[b]-thiophene-2-carboxamide] showed an IC50 of over 10000 nM.
Compound `COc1ccc(NC(=O)c2cc3ccc(-c4nccc(Nc5ccc6[nH]ncc6c5)n4)cc3[nH]2)cn1` [TDI01315, 6-(4-((1H-indazol-5-yl)amino)-pyrimidin-2-yl)-N-(6-methoxy-pyridin-3-yl)-1H-indole-2-carboxamide] has an IC50 of 2150 nM.
`CC(C)NC(=O)c1cc2ccc(-c3nccc(Nc4ccc5[nH]ncc5c4)n3)cc2s1` [TDI01104, 6-(4-((1H-indazol-5-yl)amino)pyrimidin-2-yl)-N-isopropylben-zo[b]thiophene-2-carboxamide] gave an IC50 of 870 nM.
`O=C(Nc1cnoc1)c1cc2ccc(-c3nccc(Nc4ccc5[nH]ncc5c4)n3)cc2[nH]1` [TDI01156, 6-(4-((1H-indazol-5-yl)amino)-pyrimidin-2-yl)-N-(isoxazol-4-yl)-1H-indole-2-carboxamide] gave an IC50 of 1990 nM.
Compound `CCN(CC)C(=O)c1cc2ccc(-c3ncc(OC)c(Nc4ccc(-c5cn[nH]c5)cc4)n3)cc2[nH]1` [TDI01823, 6-(4-((4-(1H-pyrazol-4-yl)phenyl)-amino)-5-methoxy-pyrimidin-2-yl)-N,N-diethyl-1H-indole-2-carboxamide] has an IC50 of over 10000 nM.
In the case of `C[C@@H](CN)NC(=O)c1cc2ccc(-c3nccc(Nc4ccc(-c5cn[nH]c5)cc4)n3)cc2[nH]1` [TDI01856, (S)-6-(4-((4-(1H-pyrazol-4-yl)phenyl)-amino)-pyrimidin-2-yl)-N-(1-aminopropan-2-yl)-1H-indole-2-carboxamide], the IC50 is reported as 2040 nM.
In the case of `CN(C)C(=O)c1cc2ccc(-c3nccc(Nc4ccc(-c5cn[nH]c5)cc4)n3)cc2[nH]1` [TDI01294, 6-(4-((4-(1H-pyrazol-4-yl)phenyl)-amino)-pyrimidin-2-yl)-N,N-dimethyl-1H-indole-2-carboxamide], the IC50 is reported as over 10000 nM.
`CC(C)NC(=O)c1cc2ccc(-c3nc(Nc4ccc5[nH]ncc5c4)c4sccc4n3)cc2[nH]1` [TDI01141, 6-(4-((1H-indazol-5-yl)amino)thieno[3,2-d]pyrimidin-2-yl)-N-isopropyl-1H-indole-2-carboxamide] was tested, and the IC50 was 839 nM.
With `Cn1c(C(=O)N2CC(F)(F)C2)cc2ccc(-c3ncc(F)c(Nc4ccc(-c5cn[nH]c5)cc4)n3)cc21` [TDI01932] the IC50 was over 10000 nM.
Work on `CC(CO)NC(=O)c1cc2ccc(-c3nccc(Nc4ccc5[nH]ncc5c4)n3)cc2[nH]1` (stereo not drawn) [TDI01176, 6-(4-((1H-indazol-5-yl)amino)-pyrimidin-2-yl)-N-(1-hydroxypropan-2-yl)-1H-indole-2-carboxamide] yielded an IC50 of 521 nM.
With `CN1CCN(CC(=O)n2ccc3ccc(-c4nccc(Nc5ccc6[nH]ncc6c5)n4)cc32)CC1` [TDI01230, 1-(6-(4-((1H-indazol-5-yl)amino)pyrimidin-2-yl)-1H-indol-1-yl)-2-(4-methylpiperazin-1-yl)ethan-1-one] the IC50 was 1500 nM.
`O=C(c1cc2ccc(-c3nccc(Nc4ccc(-c5cn[nH]c5)cc4)n3)cc2[nH]1)N1CC(F)(F)C1` [TDI01434, (6-(4-((4-(1H-pyrazol-4-yl)phenyl)ami-no)pyrimidin-2-yl)-1H-indol-2-yl)(3,3-difluoroazetidin-1-yl)methanone] gave an IC50 of over 10000 nM.
Work on `O=C(Nc1ccnnc1)c1cc2ccc(-c3nc(Nc4ccc5[nH]ncc5c4)cc4nccn34)cc2[nH]1` [TDI01164, 6-(7-((1H-indazol-5-yl)amino)-imidazo[1,2-c]pyrimidin-5-yl)-N-(pyridazin-4-yl)-1H-indole-2-carboxamide] yielded an IC50 of over 10000 nM.
`CN(CC(F)(F)F)C(=O)c1cc2ccc(-c3ncc(F)c(Nc4ccc(-c5cn[nH]c5)cc4)n3)cc2[nH]1` [TDI01426, 6-(4-((4-(1H-pyrazol-4-yl)phenyl)amino)-5-fluoropyrimidin-2-yl)-N-methyl-N-(2,2,2-trifluoroethyl)-1H-indole-2-carboxamide] was tested, and the IC50 was over 10000 nM.
Compound `O=C(Nc1cnncc1Cl)c1cc2ccc(-c3nccc(Nc4ccc5[nH]ncc5c4)n3)cc2[nH]1` [TDI01181, 6-(4-((1H-indazol-5-yl)amino)-pyrimidin-2-yl)-N-(5-chloropridazin-4-yl)-1H-indole-2-carboxamide] has an IC50 of 947 nM.
Work on `CC(C)NC(=O)c1cc2ccc(-c3nccc(Nc4ccc(-c5cn[nH]c5)cc4)n3)cc2[nH]1` [TDI01280, 6-(4-((4-(1H-pyrazol-4-yl)phenyl)ami-no)pyrimidin-2-yl)-N-isopropyl-1H-indole-2-carboxamide] yielded an IC50 of 1020 nM.
`CN(C(=O)c1cc2ccc(-c3nccc(Nc4ccc(-c5cn[nH]c5)cc4)n3)cc2[nH]1)C(CO)CO` [TDI01344-2A, 6-(4-((4-(1H-pyrazol-4-yl)phenyl)-amino)-pyrimidin-2-yl)-N-(1,3-dihydroxy-propan-2-yl)-N-methyl-1H-indole-2-carboxamide] was tested, and the IC50 was 4210 nM.
With `O=C(Nc1cn[nH]c1)c1cc2ccc(-c3nccc(Nc4ccc5[nH]ncc5c4)n3)cc2[nH]1` [TDI01199, 6-(4-((1H-indazol-5-yl)amino)-pyrimidin-2-yl)-N-(1H-pyrazol-4-yl)-1H-indole-2-carboxamide] the IC50 was 1100 nM.
With `O=C(Nc1ccnnc1)c1cc2ccc(-c3nccc(Nc4ccc5[nH]ncc5c4)n3)cc2[nH]1` [TDI01152, 6-(4-((1H-indazol-5-yl)amino)-pyrimidin-2-yl)-N-(pyridazin-4-yl)-1H-indole-2-carboxaniide] the IC50 was over 10000 nM.
